One test has as its system sebaceous glands. As to the kind of experiment: Reduction of sebaceous glands in Fuzzy rats, topical cream. The format is in vivo. As to the method:
Topical creams were prepared as later described in EXAMPLE 12. […] The test or control creams were applied using a cotton swab to the dorsal skin of the animal, once daily, over a period of 8 weeks. Animals were then sacrificed and skin samples collected for microscopic examination. Commercial hair remover was applied to the dorsal surface of the euthanized animals. After 5 minutes, the hair remover and hairs were removed with a tissue. The area was thoroughly cleaned with 75% isopropyl alcohol. A 4-millimeter skin punch was used to remove skin tissue samples, which were incubated for 2 to 3 hours in a ethylenediaminetetraacetate (EDTA, 17 millimolar), sodium phosphate (0.1 molar, pH 7.4) solution at 37 degrees Celsius. The epidermis was carefully separated from the dermis and stored in 10% phosphate-buffered formalin. Prior to microscopic examination, the samples were mounted on glass slides. Areas of well-preserved glandular lobules were selected for microscopic imaging. Edges of the glandular lobes were traced and the areas of the traced lobes obtained with Image J software (National Institutes of Health).

The next test has as its system skin wounds. As to the kind of experiment: Skin wound healing in Balb/c mice. The format is in vivo. The conditions noted are these: cream 25 uM twice per day. As to the method:
The ability of ASC-J9 to hasten wound healing in an animal model was tested using Balb/c mice. Using a skin puncher, wounds were created near the back of the neck region on retired male breeder Balb/c mice. Mice were treated with either an ASC-J9 cream (25 uM) or a vehicle control cream twice per day topically at the wound site.

Another test has as its system LNCaP cells. Nature of the test: LNCaP cell growth assay (cell count). The class given is cell-based, human. The settings on record: 5 μM. As to the method:
LNCaP cells express an endogenous mutant AR that is found in prostate cancer patients. This clinically relevant cell model was used to study ASC-J9's effect in suppressing prostate cancer cell growth. Cells were plated, at a density of approximate 6.5×10^4 cells/well, into 6-well tissue culture dishes. Two days later, the complete medium was aspired and 10% charcoal/dextran-treated (hormone depleted) serum-containing medium was added. Test compound, ASC-J9 was then added to the medium at a final concentration of 5 μM with or without 1 nM of DHT. For vehicle control, the same amount of DMSO was added into the medium. For the subsequent 5 days, the medium was aspired once per day, and replaced with fresh medium containing test compound and/or DHT. At designated times, a portion of cells was harvested by trypsinization, and cell count was performed using a hemacytometer.

Another test deals with T1, androgen receptor (AR) (Homo sapiens, UniProt P10275).
T1 construct: Incubating T47D cells with ASC-J9 (5 or 10 micromolar) in the presence or absence of estrodial (E2) decreased the cellular concentrations of AR; endogenous in cells; host or cells: T47D
T1 sequence (P10275 1-920): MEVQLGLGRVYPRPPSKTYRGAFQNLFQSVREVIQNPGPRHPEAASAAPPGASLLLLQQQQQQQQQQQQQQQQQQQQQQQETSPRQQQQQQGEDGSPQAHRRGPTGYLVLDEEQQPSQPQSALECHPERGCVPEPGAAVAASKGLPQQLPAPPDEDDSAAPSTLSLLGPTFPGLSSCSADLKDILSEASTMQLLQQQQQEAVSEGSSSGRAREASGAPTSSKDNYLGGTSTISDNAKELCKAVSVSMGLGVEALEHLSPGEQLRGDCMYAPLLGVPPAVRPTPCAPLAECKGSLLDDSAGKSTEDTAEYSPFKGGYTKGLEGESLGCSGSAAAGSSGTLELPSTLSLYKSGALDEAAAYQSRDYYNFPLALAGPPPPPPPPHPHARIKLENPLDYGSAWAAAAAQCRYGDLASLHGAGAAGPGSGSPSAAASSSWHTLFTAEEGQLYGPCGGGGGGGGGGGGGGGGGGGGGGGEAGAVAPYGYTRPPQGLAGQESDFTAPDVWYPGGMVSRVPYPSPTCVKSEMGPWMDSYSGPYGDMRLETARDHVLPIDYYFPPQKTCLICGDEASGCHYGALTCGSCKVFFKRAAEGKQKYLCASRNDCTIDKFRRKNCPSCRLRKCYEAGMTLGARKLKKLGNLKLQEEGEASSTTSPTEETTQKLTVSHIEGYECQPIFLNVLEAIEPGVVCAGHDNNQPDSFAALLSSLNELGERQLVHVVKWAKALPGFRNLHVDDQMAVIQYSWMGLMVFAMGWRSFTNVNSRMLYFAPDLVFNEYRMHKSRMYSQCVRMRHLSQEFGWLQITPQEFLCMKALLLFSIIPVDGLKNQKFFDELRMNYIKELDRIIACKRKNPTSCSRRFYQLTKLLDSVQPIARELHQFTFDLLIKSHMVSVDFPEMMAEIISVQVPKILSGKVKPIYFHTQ
As to the kind of experiment: Specificity Western blot in T47D cell lysates, AR. The format is cell-based. The settings on record: 5 or 10 micromolar, presence or absence of estrodial (E2). The method, then:
Human prostate cancer LNCaP cells and T47D cells were plated at a density of 7×10^5 cells per 60 millimeter tissue culture dish in […] medium containing 10% FBS. The medium was changed to RPMI or DME medium containing 10% charcoal-stripped serum 24 hours later to deplete cellular androgens or estrogens. After another 24 hours, treatment with the test compounds began. The test dose of ASC-J9 was 1, and 5 and micromolar. LNCap cells also received dihydrotestosterone (DHT) (3 nanomolar). Control cells received a corresponding amount of the vehicle, dimethylsulfoxide (DMSO) (<0.04%) for an equivalent exposure time. Cells were incubated with ASC-J9 for 24 hours, and were lysed in 250 microliters of 1×SDS/PAGE loading buffer. Approximately 40 micrograms of total cellular protein was loaded in each lane of a pre-cast gel (NuPAGE, Invitrogen). Protein separation and transfer were performed following the manufacturer's instructions.

As for `COc1ccc(C=CC(=O)C=C(O)C=Cc2ccc(OC)c(OC)c2)cc1OC` [ASC-J9, 5-hydroxy-1,7-bis(3,4-dimethoxyphenyl)-1,4,6-heptatrien-3-one], in the test on sebaceous glands (male Fuzzy rats, topical (FIG. 10E), comparable to castration, better than flutamide), the “size of ducts of sebaceous glands” value was “significantly reduced the size of ducts”. In the test with sebaceous glands (male rats, topical, 200 μM (FIG. 10A-C), not to the extent caused by castration), the “size of the sebaceous gland” value is “significant reduction in the size of the sebaceous gland”. Besides, the “time to reduction of brown skin color and bands of sebaceous glands” value with sebaceous glands (topical cream 25 micromolar, once daily) is reported as 4-5 weeks. Moreover, the “size of the sebaceous glandular lobe” value in the test on sebaceous glands (topical, various concentrations (FIG. 10D), less than castration, better than flutamide) is given as “significant reduction in the size of the sebaceous glandular lobe”. For the same compound, the wound size result with skin wounds (day 5, vs vehicle) is listed as “smaller wound size”. In the test on skin wounds (day 10), the wound healing result is “completely healed”. For the same compound, the “LNCaP cell growth in the presence of DHT” value in the test with LNCaP cells (1 nM DHT, 5 days) is given as “good potency to decrease LNCaP cell growth”. In the test with LNCaP cells (end of 5-day incubation), the viable cells entry is “only a minimal number of viable cells”. In addition, the “cell number per well” value with LNCaP cells (without DHT, starting from Day 2, vs vehicle control) is reported as “marked decrease in cell number”. For the same compound, the “cellular concentration of AR” value at androgen receptor (AR) is given as “decreased”.

These data come from patent US9446127B2, “Compositions including androgen receptor degradation (ARD) enhancers and methods of prophylactic or therapeutic treatment of skin disorders and hair loss” (AndroScience Corporation, priority 2007, dated 2016).
